Source: paper PMC7140460, “Fluorinated Galactoses Inhibit Galactose-1-Phosphate Uridyltransferase and Metabolically Induce Galactosemia-like Phenotypes in HEK-293 Cells” (Cells, 2020)

Target: T1, recombinant hGALT (human galactose-1-phosphate uridyltransferase) (Homo sapiens, UniProt P07902)
T1 construct: gene GALT; synthetic gene in pET-15b (NdeI-BamHI, insert 1149 bp), His-tagged, E. coli BL21(DE3)-RIPL, Ni-NTA purified; tag removal not mentioned
Experiment: coupled PGM/G6PDH assay, NADPH absorbance at […] nm
Format: biochemical

T1 sequence (P07902 whole entry): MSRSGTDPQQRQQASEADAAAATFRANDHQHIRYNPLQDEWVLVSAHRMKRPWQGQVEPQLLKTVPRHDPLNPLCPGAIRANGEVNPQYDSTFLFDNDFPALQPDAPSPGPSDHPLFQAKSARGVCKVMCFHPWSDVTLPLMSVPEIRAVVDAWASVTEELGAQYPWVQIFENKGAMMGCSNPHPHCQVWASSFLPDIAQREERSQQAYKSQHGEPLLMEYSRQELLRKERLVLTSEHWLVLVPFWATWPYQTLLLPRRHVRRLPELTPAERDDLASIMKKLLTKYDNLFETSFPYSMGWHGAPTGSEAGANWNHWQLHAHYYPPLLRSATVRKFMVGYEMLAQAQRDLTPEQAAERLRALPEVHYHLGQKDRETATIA

Ki: 900 µM
Structure (SMILES): O=P(O)(O)O[C@H]1O[C@H](CO)[C@H](O)[C@H](O)[C@H]1F [F-Gal-1-P, 2-fluoro-2-deoxy-galactose-1-phosphate]
